The test concerns BDF1 mice, B16 melanoma ip, median survival T/C. Kind of test: NCI In Vivo Anticancer Drug Screen. Data for tumor model B16 Melanoma (intraperitoneal) in B6D2F1 (BDF1) mice. Particulars: endpoint: median survival time, higher = longer survival. The gist of the method: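 Vehicle-treated animals serve as the reference (C); treated animals (T) are scored for survival or tumor size after tumor transplantation.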

Where [1] appears, read: dose: 100.0 mg/kg/injection, schedule: Q01DX009 (ip), vehicle: saline.
[2] abbreviates: dose: 200.0 mg/kg/injection, schedule: Q01DX009 (ip), vehicle: saline.
Where [3] appears, read: dose: 100.0 mg/kg/injection, schedule: Q01DX009 (ip), vehicle: saline with Tween-80.
Where [4] appears, read: dose: 200.0 mg/kg/injection, schedule: Q01DX009 (ip), vehicle: saline with Tween-80.
[5] abbreviates: dose: 12.5 mg/kg/injection, schedule: Q01DX009 (ip), vehicle: saline.
Where [6] appears, read: dose: 25.0 mg/kg/injection, schedule: Q01DX009 (ip), vehicle: saline.
Setting [7] is: dose: 50.0 mg/kg/injection, schedule: Q01DX009 (ip), vehicle: saline.
Setting [8] is: dose: 12.5 mg/kg/injection, schedule: Q01DX009 (ip), vehicle: Klucel (hydroxypropylcellulose) (HPC).
Where [9] appears, read: dose: 50.0 mg/kg/injection, schedule: Q01DX009 (ip), vehicle: Klucel (hydroxypropylcellulose) (HPC).
[10] abbreviates: dose: 100.0 mg/kg/injection, schedule: Q01DX009 (ip), vehicle: Klucel (hydroxypropylcellulose) (HPC).
[11] abbreviates: dose: 6.25 mg/kg/injection, schedule: Q01DX009 (ip), vehicle: saline.
Where [12] appears, read: dose: 25.0 mg/kg/injection, schedule: Q01DX009 (ip), vehicle: saline with Tween-80.
The mark [13] stands for this setting: dose: 50.0 mg/kg/injection, schedule: Q01DX009 (ip), vehicle: saline with Tween-80.
Setting [14] is: dose: 200.0 mg/kg/injection, schedule: Q01DX009 (ip), vehicle: Klucel (hydroxypropylcellulose) (HPC).
The mark [15] stands for this setting: dose: 25.0 mg/kg/injection, schedule: Q01DX009 (ip), vehicle: Klucel (hydroxypropylcellulose) (HPC).
The mark [16] stands for this setting: dose: 6.25 mg/kg/injection, schedule: Q01DX009 (ip), vehicle: saline with Tween-80.
Where [17] appears, read: dose: 12.5 mg/kg/injection, schedule: Q01DX009 (ip), vehicle: saline with Tween-80.
The mark [18] stands for this setting: dose: 3.12 mg/kg/injection, schedule: Q01DX009 (ip), vehicle: Klucel (hydroxypropylcellulose) (HPC).
The mark [19] stands for this setting: dose: 6.25 mg/kg/injection, schedule: Q01DX009 (ip), vehicle: Klucel (hydroxypropylcellulose) (HPC).
[20] abbreviates: dose: 400.0 mg/kg/injection, schedule: Q01DX009 (ip), vehicle: Klucel (hydroxypropylcellulose) (HPC).

Values joined by “and” are separate entries in the source; they are usually repeats but may differ in a detail not shown here. Equal entries are not always repeated. Toxic doses and inconclusive results are not listed.

On to `NC(Cc1cnc[nH]1)C(=O)O` (configuration not stated) (tested in a mixture with another compound), for which the T/C is, setting by setting: under setting [1], 106 % of control; (dose: 100.0 mg/kg/injection, schedule: Q04DX003 (ip), vehicle: saline) 104 % of control; under setting [2], 100 % of control; (dose: 200.0 mg/kg/injection, schedule: Q04DX003 (ip), vehicle: saline) 90 % of control; (dose: 400.0 mg/kg/injection, schedule: Q01DX009 (ip), vehicle: saline) 100 % of control; (dose: 400.0 mg/kg/injection, schedule: Q04DX003 (ip), vehicle: saline) 102 % of control.
Consider `CC(=O)NCc1cc(CNC(C)=O)c(C)cc1C`, for which the T/C under setting [3] was 88 % of control and the T/C under setting [4] is 86 % of control.
Consider `O=C(O)c1c(-c2ccccc2)[nH]c2cc(Cl)ccc2c1=O`, for which the T/C under setting [5] was 100 % of control; the T/C under setting [6] is 102 % of control; the T/C under setting [7] was 102 % of control; the T/C (dose: 100.0 mg/kg/injection, schedule: Q04DX003 (ip), vehicle: saline with Tween-80) is 109 % of control; the T/C (dose: 200.0 mg/kg/injection, schedule: Q01DX005 (ip), vehicle: saline) is 95 % of control; the T/C (dose: 200.0 mg/kg/injection, schedule: Q04DX003 (ip), vehicle: saline with Tween-80) was 102 % of control.
For the compound `CCOC(=O)C(=Cc1ccc(Cl)cc1)C(=O)OCC`, the T/C runs as follows: under setting [8], 94 % of control; under setting [9], 94 % of control; under setting [10], 89 % of control.
Consider `c1ccc(CN2CCNCC2)cc1`, for which the T/C under setting [11] is 108 % of control, the T/C under setting [5] was 108 % of control and the T/C under setting [6] is 106 % of control.
Consider `CCCOP(=S)(N1CC1)N1CC1`, for which the T/C is 91 % of control under setting [12], 99 % of control under setting [13], 91 % of control under setting [3] and 103 % of control under setting [4].
Turning to `C=C1C(=O)OC2CC3(C)CC(O)C(O)C(=C)C3CC12` (configuration not stated), the T/C by setting is: under setting [9], 104 % of control; under setting [10], 101 % of control.
On to `CC1(C)SC(C(NC(=O)COc2ccccc2)C(=O)O)NC1C(=O)O` (configuration not stated), for which the T/C under setting [9] was 107 % of control, the T/C under setting [10] was 110 % of control and the T/C under setting [14] is 105 % of control.
On to `O=C(NCCCN1CCOCC1)C(Oc1ccccc1)Oc1ccccc1`, for which the T/C (dose: 0.09 mg/kg/injection, schedule: Q01DX009 (ip), vehicle: Klucel (hydroxypropylcellulose) (HPC)) was 88 % of control; the T/C (dose: 0.19 mg/kg/injection, schedule: Q01DX009 (ip), vehicle: Klucel (hydroxypropylcellulose) (HPC)) is 92 % of control; the T/C (dose: 0.78 mg/kg/injection, schedule: Q01DX009 (ip), vehicle: Klucel (hydroxypropylcellulose) (HPC)) was 87 % of control; the T/C (dose: 1.56 mg/kg/injection, schedule: Q01DX009 (ip), vehicle: Klucel (hydroxypropylcellulose) (HPC)) was 88 % of control; the T/C under setting [8] is 92 % of control; the T/C under setting [15] is 86 % of control and 103 % of control. The T/C under setting [9] is 90 % of control.
For the compound `O=S(=O)(O)c1ccc(-c2c3nc(c(-c4ccc(S(=O)(=O)O)cc4)c4ccc([nH]4)c(-c4ccc(S(=O)(=O)O)cc4)c4nc(c(-c5ccc(S(=O)(=O)O)cc5)c5ccc2[nH]5)C=C4)C=C3)cc1`, the T/C by setting is: under setting [11], 104 % of control; under setting [5], 105 % of control; under setting [6], 117 % of control; under setting [7], 110 % of control.
For `COc1ccccc1NC(=O)Nc1cccc(Cl)c1`, the T/C reads like this: under setting [16], 105 % of control; under setting [17], 97 % of control; under setting [12], 100 % of control.
Take `Cc1ccc(NC(=O)CCl)cc1Cl`: the T/C is 97 % of control under setting [12], 102 % of control under setting [13] and 101 % of control under setting [3].
As to `c1cc2ccc3ccc(C4CO4)c4ccc(c1)c2c34` (configuration not stated), the T/C reads like this: under setting [18], 95 % of control; under setting [19], 96 % of control; under setting [8], 100 % of control; under setting [15], 86 % of control.
Regarding `CN(C(=S)S(=O)(=O)C12CC3CC(CC(C3)C1)C2)c1ccccc1`, the T/C reads like this: under setting [18], 98 % of control; under setting [19], 98 % of control; under setting [8], 95 % of control; under setting [15], 95 % of control; under setting [9], 88 % of control.
Regarding `c1ccc(C2=C([P+](c3ccccc3)(c3ccccc3)c3ccccc3)CCO2)cc1`, the T/C runs as follows: (dose: 6.0 mg/kg/injection, schedule: Q01DX009 (ip), vehicle: saline) 116 % of control; under setting [11], 105 % of control.
For `CC(=O)N(C)N(Cc1ccc(C#N)cc1)C(C)=O`, the T/C reads like this: under setting [15], 98 % of control; under setting [9], 96 % of control; under setting [10], 99 % of control; under setting [14], 98 % of control; under setting [20], 95 % of control.
Consider `OC1COC(c2ccco2)OC1` (configuration not stated) (tested in a mixture with another compound), for which the T/C reads like this: under setting [9], 100 % of control; under setting [10], 100 % of control; under setting [14], 106 % of control.
`NC(CSC(c1ccccc1)(c1ccccc1)c1ccccc1)C(=O)O` (configuration not stated): the T/C was 109 % of control (dose: 3.13 mg/kg/injection, schedule: Q01DX009 (ip), vehicle: saline); 118 % of control under setting [11]; 120 % of control under setting [5]; 150 % of control under setting [7].
As for `O=C(Nc1ccc(F)cc1)C(c1ccccc1)c1ccccc1`, the T/C by setting is: under setting [17], 98 % of control; under setting [12], 92 % of control; under setting [13], 89 % of control.
On to `CNC1C(O)C(NC)C2OC3(O)C(=O)CC(C)OC3OC2C1O` (configuration not stated), for which the T/C is 95 % of control under setting [6], 100 % of control under setting [7] and 109 % of control under setting [1].
Consider `CC(=O)NC1c2cc(Cl)ccc2-c2c(Cl)cc(Cl)cc21` (configuration not stated), for which the T/C runs as follows: under setting [3], 100 % of control; (dose: 400.0 mg/kg/injection, schedule: Q01DX009 (ip), vehicle: saline with Tween-80) 95 % of control; (dose: 800.0 mg/kg/injection, schedule: Q01DX009 (ip), vehicle: saline with Tween-80) 86 % of control.
Consider `CCCCn1cnc2c(=S)nc[nH]c21`, for which the T/C by setting is: under setting [16], 93 % of control; under setting [17], 89 % of control; under setting [12], 95 % of control; under setting [13], 97 % of control.
Take `O=C(O)C1CCCCC1C(=O)Nc1ccc(Cl)cc1` (configuration not stated): the T/C under setting [9] is 114 % of control, the T/C under setting [10] was 105 % of control and the T/C under setting [14] was 107 % of control.
As for `CCCCC(C(=O)OCC)C(CCC1CCCCC1)(C(=O)OCC)C(=O)OCC` (configuration not stated), the T/C was 90 % of control (dose: 12.5 mg/kg/injection, schedule: Q04DX003 (ip), vehicle: Klucel (hydroxypropylcellulose) (HPC)); 99 % of control (dose: 25.0 mg/kg/injection, schedule: Q04DX003 (ip), vehicle: Klucel (hydroxypropylcellulose) (HPC)); 87 % of control and 89 % of control (dose: 50.0 mg/kg/injection, schedule: Q04DX003 (ip), vehicle: Klucel (hydroxypropylcellulose) (HPC)).
On to `CCCCCCCCCCCCNC(=O)Nc1cccc(C)c1C`, for which the T/C is, setting by setting: under setting [10], 100 % of control; under setting [14], 100 % of control; under setting [20], 96 % of control.
For the compound `CCCCc1ccc2nc(NC(=O)OC)[nH]c2c1`, the T/C is, setting by setting: under setting [16], 106 % of control; under setting [17], 112 % of control; under setting [12], 115 % of control.
Take `C=CCNC(=O)NCC=C`: the T/C is 114 % of control under setting [6], 109 % of control under setting [7], 95 % of control under setting [1] and 100 % of control under setting [2].
With `C[CH2][Pb]([Br])([CH2]C)[CH2]C`, the T/C is, setting by setting: (dose: 3.12 mg/kg/injection, schedule: Q01DX009 (ip), vehicle: saline with Tween-80) 91 % of control; under setting [16], 94 % of control; under setting [17], 89 % of control; under setting [12], 94 % of control.

Source of the values: PubChem BioAssay AID192 (DTP/NCI, 2004).
